# Source: US5317019A, “Inhibition of interleukin-1 and tumor necrosis factor production by monocytes and/or macrophages” (priority 1991, dated 1994)
# pIC50: −log10 of the molar value.
# Experiments:
# [1] = tested on: arachidonic acid-induced inflammation; details: literature (Griswold et al.); cited from earlier work
# [2] = tested on: IL-1 production by human monocytes; details: literature (Lee et al.); in words; cited from earlier work
# [3] = tested on: 5-lipoxygenase; details: literature (Lee et al.); cited from earlier work
# [4] = tested on: cyclooxygenase; details: literature (Lee et al.); cited from earlier work
# [5] = tested on: arachidonic acid-induced mouse ear swelling; test: Arachidonic acid-induced mouse ear swelling (p.o.); type: in vivo; details: 50 mg/kg p.o.; *** p less than 0.001
# Procedure: ^a Mouse ear edema was measured as described in Griswold et al.,
# Inflammation, II(2), 189-199 (1987), the disclosure of which is hereby
# incorporated by reference.
# [6] = tested on: TNF production by human monocytes; test: In vitro TNF production by LPS-stimulated human monocytes (ELISA); type: cell-based; details: Homo sapiens, Monocyte; Table B; LPS 50 ng/ml, 24 h; read-out: IC50, LPS induced TNF human monocyte data
# Procedure: The effects of the compounds enumerated above on the in vitro production of TNF by human monocytes was examined using the following protocol.
# Bacterial lipopolysaccharide (LPS) was used to induce TNF production by human peripheral blood monocytes. TNF activity was measured by a modification of Winston et al., ELISA, described below. […] The cells were allowed to adhere for 2 hours, after which time non-adherent cells were removed by gentle washing. […] At the end of the incubation period, culture supernatants were removed and clarified of cells and all debris. Culture supernatants were immediately assayed for TNF levels in the manner described below.
# The Elisa employes a murine monoclonal anti-human TNF antibody, described below, as the capture antibody and a polyclonal rabbit anti-human TNF, described below, as the second antibody. […] TNF levels in samples were calculated from a standard curve genereated with recombinant human TNF produced in E. Coli (obtained from SmithKIine Beecham Pharmaceuticals, King of Prussia, Pa., USA).
# Polyclonal rabbit anti-human TNF antibodies were prepared by repeated immunization of New Zeland White (NZW) rabbits with recombinant human TNF emulsified in complete Freund's adjuvant (DEFCO, Ill., USA).
# [7] = tested on: IL-1 production by human monocytes; test: In vitro IL-1 production by LPS-stimulated human monocytes; type: cell-based; details: Homo sapiens, Monocyte; Table 1; LPS 50 ng/ml, 24 h; read-out: IC50, effect on LPS-stimulated IL-1 production by human monocytes
# Procedure: Bacterial lipopolysaccharide (LPS) was used to induce IL-1 production by human peripheral blood monocytes. IL-1 activity was measured by its ability to stimulate a Interleukin 2 (IL-2) producing cell line […] to secrete IL-2, in concert with A23187 ionophore, according to the method of Simon et al., J. Immunol. […] The cells were allowed to adhere for 2 hours, after which time non-adherent cells were removed by gentle washing. […] At the end of the incubation period, culture supernatants were removed and clarified of cells and all debris.
# [8] = tested on: endotoxin shock in D-gal-sensitized mice; test: LPS-GAL endotoxin shock model (D-gal-sensitized mice); type: in vivo, mouse (C57BL/6)
# Source text: (§1) Two models of endotoxin shock have been utilized to determine in vivo TNF activity and are described below. The actual protocol used in the models is described in Utility Model Examples A and B set out below, i.e. P. acnes model and LPS-GAL model.
# Endotoxin Shock in D-gal-Sensitized Mice
# The protocol used to test the compound of the method of the subject invention was essentially as has been described in Galanos et al., Proc. Nat'l Acad. Sci USA, 76:5939-43 (1979) whose disclosure is herein incorporated by reference. Briefly, D-gal […] sensitizes various strains of mice to the lethal effects of endotoxin. The administration of D-gal (300-500 mg/kg) intravenously (i.v.) sensitizes the mice to doses of Lipopolysaccharide(LPS ) as low as 0.1 mg. […]
# Plasma levels of TNF were measured using a modification of the basic sandwich ELISA method described in Winston et al., Current Protocols in Molecular Biology, Pg. […] TNF levels in rat samples were calculated from a standard curve generated with recombinant murine TNF (Genzyme, Boston, Mass., USA). TNF levels determined by ELISA correlated with levels detected by the L929 bioassay of Ruff et. al., J. Immunol. […] The ELISA detected levels of TNF down to 25 pg/ml.
# [9] = tested on: serum TNF in P. acnes-sensitized mice; test: P. acnes/LPS endotoxin shock model, serum TNF; type: in vivo, mouse (C57BL/6); details: P. acnes/LPS treated mice, oral dosage, FIG. 1
# Source text: as §1
# Endotoxin Shock in P. acnes-Sensitized Mice
# (§2) This model is a modification of the previously described protocol for the in vivo induction of TNF as described in Haranaka et al., Cancer Immunol Immunother. 18:81-90, (1984). Treatment with Proprionibacterium Acnes (P. acnes) (1 mg/animal i.p.) renders mice susceptible to the lethal effects of LPS injected 10 days later.
# P. acnes was purchased from Burroughs Wellcome (Triangle Park, N.C., USA), and […] of the heat-killed bacteria was administered in 0.5 ml pyrogen-free saline by intraperitoneal (i.p.) injection to male C57BL/6 mice, obtained from Charles River Laboratories (Stone Ridge, N.Y., USA) of 6-12 weeks of age. […] The survival of animals was monitored for 1 week.
# Plasma levels of TNF were measured using a modification of the basic sandwich ELISA method described in Winston et al., Current Protocols in Molecular Biology, Pg. […] TNF levels in rat samples were calculated from a standard curve generated with recombinant murine TNF (Genzyme, Boston, Mass., USA). TNF levels determined by ELISA correlated with levels detected by the L929 bioassay of Ruff et. al., J. Immunol. […]
# [10] = tested on: endotoxin shock in mice; test: In vivo endotoxin shock models (P. acnes and/or LPS-GAL); design: species or system mouse (C57BL/6); details: one or both in vivo models
# Source text: as §1
# The protocol used to test the compound of the method of the subject invention was essentially as has been described in Galanos et al., Proc. Nat'l Acad. Sci USA, 76:5939-43 (1979) whose disclosure is herein incorporated by reference. Briefly, D-gal […] sensitizes various strains of mice to the lethal effects of endotoxin. The administration of D-gal (300-500 mg/kg) intravenously (i.v.) sensitizes the mice to doses of Lipopolysaccharide(LPS ) as low as 0.1 mg. Briefly, male C57BL/6 mice, obtained from Charles River Laboratories (Stone Ridge, N.Y., USA) of 6-12 weeks of age were injected i.v. with 0.1 mg of LPS from Salmonella typhosa (Difco Laboratories, Detroit, Mich., USA) admixed with D(+)-gal (Sigma; 500 mg/kg) in 0.20-0.25 ml pyrogen-free saline. Compounds to be tested were administered at various times prior to or following the i.v. injection of LPS/D-gal. In this model, the control animals usually die 5-6 hr. following the injection of LPS, although on occasion deaths are seen between 24 and 48 hr.
# as §2
# P. acnes was purchased from Burroughs Wellcome (Triangle Park, N.C., USA), and […] of the heat-killed bacteria was administered in 0.5 ml pyrogen-free saline by intraperitoneal (i.p.) injection to male C57BL/6 mice, obtained from Charles River Laboratories (Stone Ridge, N.Y., USA) of 6-12 weeks of age. Ten days later, the mice were injected i.v. with 1 mg LPS in 0.25 ml saline. Compounds to be tested were administered at various times prior to or following the injection of LPS. The survival of animals was monitored for 1 week.
# Plasma levels of TNF were measured using a modification of the basic sandwich ELISA method described in Winston et al., Current Protocols in Molecular Biology, Pg. 11.2.1, Ausubel et al., Ed. (1987) John Wiley and Sons, New York, USA. The Elisa employed a hampster monoclonal anti-mouse TNF (Genzyme, Boston, Mass., USA ) as the capture antibody and a polyclonal rabbit anti-murine TNF (Genzyme, Boston, Mass., USA ) as the detecting antibody. TNF levels in rat samples were calculated from a standard curve generated with recombinant murine TNF (Genzyme, Boston, Mass., USA). TNF levels determined by ELISA correlated with levels detected by the L929 bioassay of Ruff et. al., J. Immunol. 125:1671-1677 (1980), with 1 Unit of activity in the bioassay corresponding to 70 picograms (pg) of TNF in the ELISA. The ELISA detected levels of TNF down to 25 pg/ml.
SMILES,Percent inhibition of arachidonic acid-induced mouse ear swelling [5] [%],pIC50 [6],pIC50 [7],Inhibition of in vivo TNF levels / in vivo activity [10],Protection from lethal effects of endotoxin shock [10],other results
"Fc1ccc(-c2nc3n(c2-c2ccncc2)CCS3)cc1 [5-(4-pyridyl)-6(4-fluorophenyl)-2,3-dihydroimidazo(2,1-b)thiazole]",,,,,,Effects on the edematous and cellular component of arachidonic acid-induced inflammation [1]: inhibitory effects; Inhibition of IL-1 production by LPS-stimulated human monocytes [2]: potent inhibitor of IL-1 production; Inhibition of 5-lipoxygenase-mediated arachidonate metabolism [3]: inhibits; Inhibition of cyclooxygenase-mediated arachidonate metabolism [4]: inhibits
"CSc1ccc(-c2nc3n(c2-c2ccncc2)CCC3)cc1 [Compound 1, 2-(4-methylthiophenyl)-3-(4-pyridyl)-6,7-dihydro-[5H]-pyrrolo-[1,2-a-]-imidazole]",56,6.00,5.70,,,
"C[S+]([O-])c1ccc(-c2nc3n(c2-c2ccncc2)CCC3)cc1 (stereo not drawn) [Compound 2, 2-(4-methylsulfinylphenyl)-3-(4-pyridyl)-6,7-dihydro-[5H]-pyrrolo-[1,2-a]-imidazole]",44,< 5.00,< 5.00,in vivo activity,protection from the lethal effects of endotoxin shock,"Reduction of serum TNF levels ([8]; 100 mg/kg, FIG. 3): reduction of serum TNF levels; Survival rate of animals with endotoxic shock ([8]; FIG. 4, control group 30%): 100%; Reduction in serum / in vivo TNF levels [9]: decreased levels of in vivo TNF relative to increased oral dosage"
CCSc1ccc(-c2nc3n(c2-c2ccncc2)CCC3)cc1 [Compound 3],56,,5.70,,,
CC[S+]([O-])c1ccc(-c2nc3n(c2-c2ccncc2)CCC3)cc1 (stereo not drawn) [Compound 4],41,5.15,< 5.00,inhibited in vivo TNF levels,protected the animals from endotoxic induced shock,
"CSc1ccc(-c2nc3n(c2-c2ccnc(C)c2)CCC3)cc1 [Compound 5, 2-(4-methylthiophenyl)-3-(4-(2-methyl)pyridyl)-6,7-dihydro-[5H]-pyrrolo-[1,2-a-]-imidazole]",59,5.15,5.57,inhibited in vivo TNF levels,protected the animals from endotoxic induced shock,
"Cc1cc(-c2c(-c3ccc([S+](C)[O-])cc3)nc3n2CCC3)ccn1 (stereo not drawn) [Compound 6, 2-(4-methylsulfinylphenyl)-3-(4-(2-methyl)-pyridyl)-6,7-dihydro-[5H]-pyrrolo-[1,2-a]-imidazole]",59,,< 5.00,,,
"O=S1(=O)CCn2c1nc(-c1ccc(F)cc1)c2-c1ccncc1 [Compound J, 6-(4-Fluorophenyl)-5-(4-pyridyl)-2,3-dihydroimidazo[2,1-b]thiazole-1,1-dioxide]",,5.05,,inhibited in vivo TNF levels,protected the animals from endotoxic induced shock,
CC(Cc1ccc(O)c(O)c1)C(C)Cc1ccc(O)c(O)c1 (stereo not drawn) [nordihydroguaiaretic acid],,,,,,"Inhibition of IL-1 production by LPS-stimulated human monocytes [2]: with the exception of nordihydroguaiaretic acid, were inactive"
